{
  "source": "patent US8975280B2",
  "about": "“Deoxynojirimycin and D-arabinitol analogs and methods of using” (The Chancellor, Masters and Scholars of The University of …, priority 2006, dated 2015)",
  "key": {"[1]": {"biological_target": "T1, α-glucosidase II (Rattus norvegicus, UniProt A0A8I6GFL3)", "T1 construct": "Purified α-glucosidase I and II were purified from rat liver by known methods; from tissue; host or cells: rat liver", "T1 sequence (A0A8I6ADW9 1-525 partner)": "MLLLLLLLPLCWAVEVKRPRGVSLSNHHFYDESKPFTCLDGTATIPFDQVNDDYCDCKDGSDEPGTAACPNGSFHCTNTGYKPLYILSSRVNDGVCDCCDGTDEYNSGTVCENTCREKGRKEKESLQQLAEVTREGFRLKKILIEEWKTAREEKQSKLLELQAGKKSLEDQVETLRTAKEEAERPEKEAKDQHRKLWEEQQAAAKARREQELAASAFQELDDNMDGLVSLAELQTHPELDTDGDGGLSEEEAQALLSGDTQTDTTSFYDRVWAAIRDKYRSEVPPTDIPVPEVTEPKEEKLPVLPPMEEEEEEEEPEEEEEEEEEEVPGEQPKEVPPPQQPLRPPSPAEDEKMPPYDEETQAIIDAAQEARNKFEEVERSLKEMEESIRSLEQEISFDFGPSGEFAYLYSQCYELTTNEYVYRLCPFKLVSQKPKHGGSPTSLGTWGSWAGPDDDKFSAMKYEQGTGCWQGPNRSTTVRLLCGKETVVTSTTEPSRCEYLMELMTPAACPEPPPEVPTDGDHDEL", "experiment": "In vitro inhibition of purified α-glucosidase II, (a) and (b) activities, 2-AA-labeled FOS substrates, HPLC", "format": "biochemical", "method": "All chromatography was performed at 30° C. The first solvent, solvent A, was acetonitrile and the second solvent, solvent B, was Milli-Q water. […] Samples (<50 μl) were injected in Milli-Q water/acetonitrile (3/7, v/v). All chromatography was controlled, including data collection and processing, using Waters Empower software. Glucose units were determined, following comparison with a 2-AA-labeled glucose oligomer ladder (derived from a partial hydrolysate of dextran) external standard using Peak Time software (developed in-house).\nPurified α-glucosidase I and II were purified from rat liver by known methods. […] 2-AA-labeled FOS were isolated and purified as substrates for either α-glucosidase I or II. […] […] […] […] The reactions were stopped by the addition of 30 μl acetonitrile."}, "[2]": {"biological_target": "T2, glucosidase I (Homo sapiens, UniProt Q13724)", "T2 construct": "endogenous in cells; host or cells: HL60 cells", "T2 sequence (Q13724 1-837)": "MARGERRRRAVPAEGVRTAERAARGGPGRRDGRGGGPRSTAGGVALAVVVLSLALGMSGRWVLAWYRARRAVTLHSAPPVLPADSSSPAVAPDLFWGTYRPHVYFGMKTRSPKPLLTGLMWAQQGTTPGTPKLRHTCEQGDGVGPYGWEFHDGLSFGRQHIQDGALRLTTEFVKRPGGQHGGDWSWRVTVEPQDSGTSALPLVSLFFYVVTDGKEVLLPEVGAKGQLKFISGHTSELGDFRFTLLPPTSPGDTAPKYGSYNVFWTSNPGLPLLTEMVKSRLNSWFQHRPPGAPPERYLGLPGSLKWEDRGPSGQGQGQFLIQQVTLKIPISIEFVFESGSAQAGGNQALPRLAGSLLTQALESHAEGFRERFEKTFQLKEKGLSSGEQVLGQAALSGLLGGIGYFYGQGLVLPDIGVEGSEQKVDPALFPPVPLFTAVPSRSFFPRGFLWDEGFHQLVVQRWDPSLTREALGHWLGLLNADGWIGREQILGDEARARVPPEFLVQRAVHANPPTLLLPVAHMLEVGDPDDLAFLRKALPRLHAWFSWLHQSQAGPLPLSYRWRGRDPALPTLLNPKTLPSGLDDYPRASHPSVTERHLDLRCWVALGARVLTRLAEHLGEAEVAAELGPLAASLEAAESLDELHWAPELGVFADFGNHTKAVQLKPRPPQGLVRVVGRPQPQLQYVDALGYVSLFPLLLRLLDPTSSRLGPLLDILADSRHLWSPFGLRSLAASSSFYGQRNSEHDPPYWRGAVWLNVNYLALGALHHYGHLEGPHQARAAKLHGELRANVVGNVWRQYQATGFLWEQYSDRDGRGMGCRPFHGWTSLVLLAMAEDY", "experiment": "Inhibition of glucosidase I in HL60 cells, free oligosaccharide (G3M5N) analysis by NP-HPLC", "format": "cell-based", "set-up": "concentration of maximal glucosidase I inhibition in cells: unit not given here", "conditions": "24 h", "method": "The effect of an ER-glucosidase inhibitor on cells was evaluated using an assay method by modifying known methods. (H. R. Mellor et al., Cellular Effects of Deoxynojirimycin Analogues: Inhibition of N-Linked Oligosaccharide Processing and Generation of Free Glucosylated Oligosaccharides, 381 Biochem. J. 867-875 (2004). The detection of free oligosaccharides following imino sugar treatment to generate misfolded protein that is degraded in the cytosol is an accurate measure of cell ER entry and inhibition of glycoprotein processing of α-glucosidases I and II by imino sugars.\nCells were cultured to high density (×10^7 cells/ml) prior to growth in fresh medium containing NB-DNJ at varying concentrations. The cells were seeded at a lower density so as to achieve a high density at the end of the incubation period. […] The conditions for extraction of FOS were determined to maximize recovery of FOS. […]\nConA-Sepharose purified 2-AA-labeled oligosaccharides were separated by NP-HPLC using a 4.6×250 mm TSKgel Amide-80 column (Anachem, Luton, UK) with slight modifications to known methods. (D. C. Neville, et al.) The chromatography system consisted of a Waters Alliance 2695 separations module and an in-line Waters 474 fluorescence detector set at an excitation wavelength of 360 nm and emission wavelength of 425 nm. […]"}},
  "note": "Like-named read-outs stand apart in the source and are kept apart here.",
  "data": [
    {"smiles": "[N-]=[N+]=Nc1ccc(NCCCCCCN2C[C@H](O)[C@@H](O)[C@H](O)[C@H]2CO)c([N+](=O)[O-])c1", "note": "[NAP-DNJ, N—(N′-{4′azido-2′-nitrophenyl)-6-aminohexyl)-deoxynojirimycin]", "values": [
      {"measurement": "IC50", "setting": "[1]; heptamannose substrate Glc1Man7GlcNAc1, read-out: α-Glucosidase II (b) Glc1Man7GlcNAc1 IC50", "value": "19.2 ± 0.06", "unit": "µM"},
      {"measurement": "IC50", "setting": "[1]; heptamannose substrate Glc2Man7GlcNAc1, read-out: α-Glucosidase II (a) Glc2Man7GlcNAc1 IC50", "value": "11.7 ± 0.7", "unit": "µM"},
      {"measurement": "IC50", "setting": "[1]; pentamannose substrate Glc1Man5GlcNAc1, read-out: α-Glucosidase II (b) Glc1Man5GlcNAc1 IC50", "value": "0.833 ± 0.18", "unit": "µM"},
      {"measurement": "IC50", "setting": "[1]; pentamannose substrate Glc2Man5GlcNAc1, read-out: α-Glucosidase II (a) Glc2Man5GlcNAc1 IC50", "value": "0.3 ± 0.1", "unit": "µM"},
      {"measurement": "concentration of maximal glucosidase I inhibition in cells", "setting": "[2]; G3M5N", "value": "50-100 ρM"},
      {"measurement": "more potent at inhibiting glucosidase I than NB-DNJ in cells", "setting": "[2]; estimation of G3M5N", "value": "20-50 times"}
    ]}
  ]
}
